Test results as given in patent publication US20120065126A1, “Pharmaceutical Compositions Containing Antifungal Peptides” (BASF SE, priority 2009, published 2012).
Where two headings read alike, the source gives them in different places.

Tested on: M. furfur
Format: cell-based, Malassezia furfur
Conditions: shampoo base formulation 31-3 present
Experimental: The studies described hereinafter were conducted on the Malassezia furfur strain DSM 6170.
The minimum inhibitory concentration (MIC) of peptide P18 (H-KWKLFKKIPKFLHLAKKF-NH2; carboxyl terminus amidated) in the presence of shampoo base formulation 31-3 (Table 10) was tested in the following manner: […]
To prepare the shampoo base formulation, the Texapon NSO and Tego Betain L7 components were mixed and dissolved. NaOH was used to adjust the pH to pH 6-7.
The growth test was effected as follows: a shake culture containing M472 Pityrosporum medium was inoculated with M. furfur and incubated with shaking at 30° C. and 200 rpm overnight.
A 96-well microtiter plate was filled with 170 μl per well of M472 Pityrosporum medium and inoculated with 10 μl of M. furfur suspension from an overnight culture. This corresponded to an optical density of 0.02-0.1, measured at 620 nm. 20 μl of shampoo base formulation 31-3 were added to this mixture. Peptide P18 was dissolved with a concentration of 10 mM in DMSO.
The microtiter plate was incubated with shaking at 30° C.
After incubation for 24 hours, the colony forming units (CFU) were determined by resuspending 1 μl of each of the suspensions in 10 μl of medium, and then streaking them. After incubation over the course of 6 days, the colonies on the plate were counted. The experiment was conducted in double determination.

H-KWKLFKKIPKFLHLAKKF-NH2 [P18, H-KWKLFKKIPKFLHLAKKF-NH2]
Colony forming units (CFU) after incubation time of 24 hours (P18 25 μM): 80 CFU
Colony forming units (CFU) after incubation time of 24 hours (P18 50 μM): 32 CFU
Colony forming units (CFU) after incubation time of 24 hours (P18 100 μM): 0 CFU
Colony forming units (CFU) after incubation time of 24 hours (P18 200 μM): 0 CFU
Colony forming units (CFU) after incubation time of 24 hours (P18 300 μM): 0 CFU
Colony forming units (CFU) after incubation time of 24 hours (P18 400 μM): 0 CFU
Colony forming units (CFU) after incubation time of 24 hours (P18 500 μM): 0 CFU
